35 compounds from a melting point compilation (Tetko et al.; mined from patent text by program, amines drawn as free bases though some values may be those of a salt) can be followed below.

The structures appear in SMILES notation.

With `COc1ccc(C(O)C(=S)N(C)C)cc1` (stereo not given), the melting point (usually the temperature of the solid-liquid transition) was determined as 101 °C. Under `OC(CCc1cccnc1)CSc1ccc(-c2ccccc2)cc1` (stereo not given) stands 128 to 130 °C; under `c1ccc2c(c1)NCS2`, 60 to 62 °C; under `O=C(O)CC(NC(=O)OCC1c2ccccc2-c2ccccc21)C(F)(F)F` (stereo not given), 187 to 189 °C. For `CC12C=CC(O)CC1CCC1C2CCC2(C)C(C#N)CCC12` (stereo not given), the melting point fell in the range of 129 to 133 °C. Under `O=c1cc(-c2ccc(O)c(-c3cccs3)c2)oc2ncccc12` stands 274 to 275 °C; under `CCSc1ccc(Oc2ccc(Cl)c(Cl)c2)nc1C#N`, 64 to 66 °C.

For `O=C(NCCNCc1ccccc1)c1ccc(Cl)cn1`, the melting point was 45 to 46 °C.

On to `CN1C(=O)C2(COc3cc4c(cc32)OCCO4)c2c(NC(=O)C(C)(C)C)cccc21` (stereo not given), for which the melting point lay within 182 to 184 °C. Under `COc1ccc(-c2cc(-c3ccc(-c4c(Cc5ccccc5)sc5ccccc45)c(Br)c3)ccc2OCC(=O)O)cc1OC` stands 103 to 105 °C; under `COc1ccc2ccccc2c1[N+](=O)[O-]`, 129 to 130 °C; under `NC(=O)C1=NN(c2cccc(COc3ccccc3)c2)C(c2ccccc2)N1` (stereo not given), 177 to 178 °C.

`CSc1nn(-c2c(Cl)cc(C(F)(F)F)cc2Cl)c2ncnc(-c3ccccc3Cl)c12` showed a melting point of 156 to 158 °C. Regarding `COc1cc2c(OC)cccc2cc1-c1nc2cnccc2[nH]1`, the melting point fell in the range of 178 to 180 °C. The same measure for `O=[N+]([O-])c1cc(I)ccc1Nc1cccc(-c2cncnc2)c1`: 214 to 217 °C. Consider `CCOP(C)(=O)CC(CCc1ccccc1)NS(=O)(=O)c1ccc(C)cc1` (stereo not given), for which the melting point lay in the range of 107 to 108 °C. The same measure for `COc1cc(OC)cc(-c2nc(CCOc3ccc(C[C@H](OC)C(=O)O)c4sccc34)c(C)o2)c1`: 194 to 195 °C. In the case of `CCc1cnc2c(NC(=O)c3c(Cl)cccc3Cl)cccc2c1C(=O)O`, the melting point was 231 to 233 °C.

In turn, `O=C(Nc1ccc(N2CCOCC2=O)cc1)[C@H]1CCCN1C(=O)Nc1ccc(Cl)cc1` yielded a melting point of 228 °C.

`CC(C)N1CCN(c2cccc(N)c2)C(=O)C1` registered a melting point of 114 to 115 °C. Under `CC(C)=CCCC(C)=CCOc1ccc(C(=O)NCCNc2cccnc2)cc1` stands 88.5 to 89.2 °C; under `CNC(=O)ON(Cc1ccc(OCc2ccccc2)cc1)C(C)=O`, 101 to 102 °C. The same measure for `COC(=O)Cc1cccc2c(=O)cc(C3=CCCCC3)oc12`: 137 to 138 °C; for `O=C(O)c1cc2c3ccccc3n(Cc3ccccc3)c2s1`: 194 to 195 °C; for `O=C1c2cccc3cccc(c23)C(O)N1CCN1CCC(Cc2ccccc2)CC1` (stereo not given): 153 to 155 °C. The same measure for `CC(C)n1cc(C(=O)Nc2nccs2)c2ccc(O)cc21`: 239 to 241 °C; for `Nc1ccc2c(c1)S(=O)(=O)N(CCCCN1CCN(c3ncccn3)CC1)C2=O`: 150 to 151 °C. `Cc1nc(Cc2ccccc2)c2c(c1O)COC(C(C)C)OC2` (stereo not given) registered a melting point of 193 to 194 °C.

As to `COc1ccc2c(c1O)NC(=O)C1CCCN1C2=O` (stereo not given), the melting point was in the range of 275 to 278 °C. `CC(=O)c1ccc(-n2c(-c3sc(Nc4ccc(Cl)cc4)nc3-c3ccccc3)nc3ccccc3c2=O)cc1`: the melting point fell in the range of 218 to 220 °C. Under `O=C1c2cccc(O)c2NC(O)C2CCCN12` (stereo not given) stands 155 to 157 °C; under `CC1(C)SC2C(NC(=O)C(NC(=O)CBr)c3ccccc3)C(=O)N2C1c1nnn[nH]1` (stereo not given), 128 to 135 °C; under `CC(O)c1ccc(Nc2nccc(-c3cccnc3)n2)cc1` (stereo not given), 145 to 147 °C. Compound `COc1ccc2sc(C(=O)Oc3ccccc3)c(Oc3ccccc3)c2c1` displayed a melting point of 198 °C. Compound `O=[N+]([O-])N=C1N(COCCBr)CCN1Cc1ccc(Cl)nc1` returned a melting point of 90 to 92 °C.
